The record followed here is ChEMBL document CHEMBL4811278, “Discovery of novel modulators for the PPARα (peroxisome proliferator activated receptor α): Potential therapies for nonalcoholic fatty liver disease” (Bioorg Med Chem, 2021).

Calls of active or inactive are those of the source. The rule behind the calls is not given here.

For series [1], the target named is T1, Peroxisome proliferator-activated receptor alpha (Mus musculus) (UniProt P23204).
T1 sequence (whole entry): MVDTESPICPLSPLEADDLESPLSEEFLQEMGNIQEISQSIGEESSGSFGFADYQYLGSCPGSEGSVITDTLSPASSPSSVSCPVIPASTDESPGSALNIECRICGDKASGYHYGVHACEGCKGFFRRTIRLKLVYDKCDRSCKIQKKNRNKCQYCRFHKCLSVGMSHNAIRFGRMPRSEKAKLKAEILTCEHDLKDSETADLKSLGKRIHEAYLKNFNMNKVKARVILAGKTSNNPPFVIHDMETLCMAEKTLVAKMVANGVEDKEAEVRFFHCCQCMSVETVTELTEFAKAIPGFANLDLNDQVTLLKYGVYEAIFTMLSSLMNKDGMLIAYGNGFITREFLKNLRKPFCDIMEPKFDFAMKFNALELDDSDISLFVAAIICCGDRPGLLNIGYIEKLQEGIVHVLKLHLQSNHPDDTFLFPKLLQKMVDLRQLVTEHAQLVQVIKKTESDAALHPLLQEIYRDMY
In words: In vivo agonist activity at PPARalpha in high fat diet-induced nonalcoholic steatohepatitis C57BL/6J mouse model assessed as increase in Cyp4a3 mRNA expression in liver administered at 3 mg/kg, po and measured after 24 hrs by quantitative real time PCR analysis. Type of series: functional, organism-based. In general terms: Real-time PCR tracks product formation cycle by cycle.

In series [2] the target is T1, Peroxisome proliferator-activated receptor alpha (Mus musculus). The experiment in a line: In vivo agonist activity at PPARalpha in high fat diet-induced nonalcoholic steatohepatitis C57BL/6J mouse model assessed as increase in ACOX1 mRNA expression in liver administered at 3 mg/kg, po administered once daily for 7 days by quantitative real time PCR analysis. It is filed as functional, organism-based. As to conditions: time 7.0 day.

A short description of series [3]: Toxicity in C57BL/6J mouse assessed as reduction in body weight measured after 72 hrs. Conditions: in vivo.
Series [4] concerns the target T1, Peroxisome proliferator-activated receptor alpha (Mus musculus). The experiment in a line: In vivo agonist activity at PPARalpha in high fat diet-induced nonalcoholic steatohepatitis C57BL/6J mouse model assessed as increase in LPL mRNA expression in liver administered at 3 mg/kg, po administered once daily for 7 days by quantitative real time PCR analysis. Type of series: functional, organism-based. Conditions: time 7.0 day.

For series [5], the system named is Mus musculus. In words: Hypolipidemic activity in high fat diet-induced nonalcoholic steatohepatitis C57BL/6J mouse model assessed as reduction in hepatic […] content at 3 mg/kg, po administered once daily via gavage for 7 days. It is filed as functional, organism-based. Conditions: time 7.0 day.
Series [6] deals with T1, Peroxisome proliferator-activated receptor alpha (Mus musculus). In words: In vivo agonist activity at PPARalpha in high fat diet-induced nonalcoholic steatohepatitis C57BL/6J mouse model assessed as increase in ACOX1 mRNA expression in liver administered at 3 mg/kg, po and measured after 24 hrs by quantitative real time PCR analysis. It is filed as functional, organism-based.

The target in series [7] is T2, Peroxisome proliferator-activated receptor delta (Homo sapiens, UniProt Q03181).
T2 sequence (Q03181 whole entry): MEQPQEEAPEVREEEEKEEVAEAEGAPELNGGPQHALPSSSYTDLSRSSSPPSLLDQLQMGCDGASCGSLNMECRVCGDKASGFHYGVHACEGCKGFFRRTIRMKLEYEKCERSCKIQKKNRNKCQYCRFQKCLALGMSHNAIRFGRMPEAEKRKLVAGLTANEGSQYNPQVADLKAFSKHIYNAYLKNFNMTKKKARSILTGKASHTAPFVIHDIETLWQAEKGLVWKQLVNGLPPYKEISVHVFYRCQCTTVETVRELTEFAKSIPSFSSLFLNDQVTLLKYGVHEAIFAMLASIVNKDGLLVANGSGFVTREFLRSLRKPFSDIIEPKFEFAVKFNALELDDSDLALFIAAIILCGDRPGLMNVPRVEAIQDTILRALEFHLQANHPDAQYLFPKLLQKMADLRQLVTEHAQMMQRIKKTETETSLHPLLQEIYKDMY
The experiment in a line: Agonist activity at Gal4-fused human PPARdelta expressed in monkey CV1 cells assessed as receptor transactivation incubated for 45 hrs by luciferase reporter gene assay. Type of series: cell-based, CV-1. On the technique in general: In a reporter assay the amount or activity of a reporter protein is the signal.

The test system of series [8] is Mus musculus. In words: Hypolipidemic activity in wild type high fat diet-induced nonalcoholic steatohepatitis C57BL/6J mouse model assessed as reduction in plasma triglyceride levels at 3 mg/kg, po measured after 72 hrs. Type of series: functional, organism-based.
Series [9] concerns Mus musculus. The experiment in a line: Hypolipidemic activity in high fat diet-induced nonalcoholic steatohepatitis C57BL/6J mouse model assessed as reduction in plasma triglyceride level at 3 mg/kg, po administered via gavage and measured after 24 hrs. It is filed as functional.
The nature of series [10]: Toxicity in high fat diet-induced nonalcoholic steatohepatitis C57BL/6J mouse model assessed as increase in plasma glucose level at 3 mg/kg, po administered once daily for 7 days and measured after 4 days. Type of series: organism-based. Conditions: in vivo, 96 h, time 4 day.
In series [11] the test system is Mus musculus. In words: Upregulation of PPARalpha expression in liver of high fat diet-induced nonalcoholic steatohepatitis C57BL/6J mouse model at 3 mg/kg, po and measured after 24 hrs by quantitative real time PCR analysis. Type of series: functional, organism-based.
The subject of series [12] is Mus musculus. The experiment in a line: Hypolipidemic activity in high fat diet-induced nonalcoholic steatohepatitis C57BL/6J mouse model assessed as reduction in hepatocellular vacuolation at 3 mg/kg, po administered once daily for 1 week by Oil Red O staining based assay. Type of series: functional, organism-based. As to conditions: time 1.0 weeks.
In series [13] the test system is Mus musculus. The experiment in a line: Hypolipidemic activity in high fat diet-induced nonalcoholic steatohepatitis PPARalpha knockout C57BL/6J mouse model assessed as reduction in plasma triglyceride levels at 3 mg/kg, po measured after 72 hrs. Type of series: functional, organism-based.
For series [14], the target named is T1, Peroxisome proliferator-activated receptor alpha (Mus musculus). The experiment in a line: In vivo agonist activity at PPARalpha in high fat diet-induced nonalcoholic steatohepatitis C57BL/6J mouse model assessed as increase in Cyp4a3 mRNA expression in liver administered at 3 mg/kg, po administered once daily for 7 days by quantitative real time PCR analysis. Type of series: functional, organism-based. Conditions: time 7.0 day.

In series [15] the target is T3, Peroxisome proliferator-activated receptor gamma (Homo sapiens, UniProt P37231).
T3 sequence (P37231 whole entry): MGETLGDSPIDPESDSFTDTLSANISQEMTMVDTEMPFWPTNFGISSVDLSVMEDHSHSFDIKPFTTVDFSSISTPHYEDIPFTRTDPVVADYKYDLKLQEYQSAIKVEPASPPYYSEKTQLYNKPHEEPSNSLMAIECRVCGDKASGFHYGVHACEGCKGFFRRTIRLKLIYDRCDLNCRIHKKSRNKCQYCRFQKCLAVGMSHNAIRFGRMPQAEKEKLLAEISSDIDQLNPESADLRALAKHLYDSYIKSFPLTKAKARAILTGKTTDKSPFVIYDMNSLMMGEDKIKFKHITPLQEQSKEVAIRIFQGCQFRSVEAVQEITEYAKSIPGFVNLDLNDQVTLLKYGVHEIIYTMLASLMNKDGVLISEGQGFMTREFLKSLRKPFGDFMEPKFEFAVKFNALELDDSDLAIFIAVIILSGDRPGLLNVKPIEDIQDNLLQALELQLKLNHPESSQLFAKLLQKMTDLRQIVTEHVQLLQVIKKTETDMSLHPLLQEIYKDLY
The experiment in a line: Agonist activity at Gal4-fused human PPARgamma expressed in monkey CV1 cells assessed as receptor transactivation incubated for 45 hrs by luciferase reporter gene assay. It is filed as cell-based, CV-1.

Series [16] relates to Mus musculus. In words: Hypolipidemic activity in high fat diet-induced nonalcoholic steatohepatitis C57BL/6J mouse model assessed as reduction in plasma free fatty acid level at 3 mg/kg, po administered once daily via gavage for 7 days. Type of series: functional. Conditions: 168 h, time 7 day.
The target of series [17] is T1, Peroxisome proliferator-activated receptor alpha (Mus musculus). The experiment in a line: In vivo agonist activity at PPARalpha in high fat diet-induced nonalcoholic steatohepatitis C57BL/6J mouse model assessed as increase in mACADM gene expression in liver at 3 mg/kg, po administered once daily for 7 days by quantitative real time PCR analysis. Type of series: functional, organism-based. Conditions: time 7.0 day.

For orientation: EC50 means the concentration at which the effect is half-maximal. In general, inhibition in vivo refers to the drop in the measured response relative to a control, in per cent.

Consider `COc1ccc(Cn2c(CCCc3ccc(OC(C)(C)C(=O)O)cc3)nn(Cc3ccc(C)cc3)c2=O)cc1`, for which the outcome (in series [1]; in series [2]; in series [4]; with Mus musculus [5]; in [6]; with Mus musculus [8]) was Active. Also, the result (with Mus musculus [11]; in the series on Mus musculus [12]; in [14]; in [17]) was Active. Moreover, the Activity result in [3] and in [10] was “Non-Toxic” in each case. Also, the EC50 in series [7] and in series [15] was more than 10 µM throughout. Moreover, the inhibition in vivo at 3 mg/kg with Mus musculus [9] was not below 50%; in the series with Mus musculus [16] it was not below 60%. Further, the result in the series on Mus musculus [13] was inactive.
